Where two headings read alike, the source gives them in different places.
Experiments:
Assay in all cases: SelectScreen kinase assay
[1] = target: T1, ADRBK1 (GRK2) (Homo sapiens, UniProt P25098); details: for Inhibition at 1 µM (%): ADRBK1 (GRK2), ZLYTE, ATP Km app
T1 sequence (P25098 1-689): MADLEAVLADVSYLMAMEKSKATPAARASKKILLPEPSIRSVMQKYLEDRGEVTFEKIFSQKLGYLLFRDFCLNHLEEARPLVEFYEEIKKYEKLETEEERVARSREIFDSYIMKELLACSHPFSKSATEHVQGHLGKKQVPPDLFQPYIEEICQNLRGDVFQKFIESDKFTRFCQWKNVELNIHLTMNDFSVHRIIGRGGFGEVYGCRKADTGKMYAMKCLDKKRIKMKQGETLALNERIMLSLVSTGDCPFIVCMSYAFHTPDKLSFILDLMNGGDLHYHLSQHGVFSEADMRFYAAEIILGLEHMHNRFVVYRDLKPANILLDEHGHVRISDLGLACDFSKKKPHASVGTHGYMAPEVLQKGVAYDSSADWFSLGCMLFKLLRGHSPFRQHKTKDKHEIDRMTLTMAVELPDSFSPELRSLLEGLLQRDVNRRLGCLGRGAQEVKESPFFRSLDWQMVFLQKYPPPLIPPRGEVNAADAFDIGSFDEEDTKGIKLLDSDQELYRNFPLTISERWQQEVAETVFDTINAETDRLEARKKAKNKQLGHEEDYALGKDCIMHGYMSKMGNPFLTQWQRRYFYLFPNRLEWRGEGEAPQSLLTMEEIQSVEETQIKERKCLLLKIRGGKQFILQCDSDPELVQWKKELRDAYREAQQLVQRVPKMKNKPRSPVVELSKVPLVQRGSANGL
Method: (§1) Selectivity profiling assays were performed by the Invitrogen SelectScreen™ Services. […] The concentration of ATP was selected to be equal to the KM, unless indicated otherwise.

[2] = target: T2, BRSK1 (SAD1) (Homo sapiens, UniProt Q8TDC3)
T2 sequence (Q8TDC3 1-778): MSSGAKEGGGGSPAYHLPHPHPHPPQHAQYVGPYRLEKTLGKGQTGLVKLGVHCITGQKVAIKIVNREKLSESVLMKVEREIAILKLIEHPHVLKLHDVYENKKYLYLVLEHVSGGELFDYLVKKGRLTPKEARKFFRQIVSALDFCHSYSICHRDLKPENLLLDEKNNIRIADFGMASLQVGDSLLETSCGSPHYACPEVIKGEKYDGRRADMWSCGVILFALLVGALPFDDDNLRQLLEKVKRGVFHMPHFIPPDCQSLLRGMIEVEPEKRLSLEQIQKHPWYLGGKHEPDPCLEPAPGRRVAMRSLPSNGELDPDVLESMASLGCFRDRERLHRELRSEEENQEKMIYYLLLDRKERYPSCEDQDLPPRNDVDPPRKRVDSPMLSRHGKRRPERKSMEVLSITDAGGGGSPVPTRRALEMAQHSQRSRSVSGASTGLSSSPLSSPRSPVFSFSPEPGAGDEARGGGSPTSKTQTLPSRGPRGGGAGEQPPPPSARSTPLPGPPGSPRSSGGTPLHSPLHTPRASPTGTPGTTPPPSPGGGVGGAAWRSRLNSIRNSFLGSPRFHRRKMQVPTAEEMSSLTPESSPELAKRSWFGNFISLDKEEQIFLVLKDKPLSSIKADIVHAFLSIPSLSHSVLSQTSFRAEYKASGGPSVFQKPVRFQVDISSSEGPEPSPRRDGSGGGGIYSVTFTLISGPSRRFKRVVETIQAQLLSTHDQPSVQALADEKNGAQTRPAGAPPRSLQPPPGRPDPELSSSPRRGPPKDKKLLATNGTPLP
Method: as §1

[3] = target: CAMK1D (CaMKI delta) (Homo sapiens, UniProt Q8IU85)
Sequence of CAMK1D (CaMKI delta) (Q8IU85 whole entry): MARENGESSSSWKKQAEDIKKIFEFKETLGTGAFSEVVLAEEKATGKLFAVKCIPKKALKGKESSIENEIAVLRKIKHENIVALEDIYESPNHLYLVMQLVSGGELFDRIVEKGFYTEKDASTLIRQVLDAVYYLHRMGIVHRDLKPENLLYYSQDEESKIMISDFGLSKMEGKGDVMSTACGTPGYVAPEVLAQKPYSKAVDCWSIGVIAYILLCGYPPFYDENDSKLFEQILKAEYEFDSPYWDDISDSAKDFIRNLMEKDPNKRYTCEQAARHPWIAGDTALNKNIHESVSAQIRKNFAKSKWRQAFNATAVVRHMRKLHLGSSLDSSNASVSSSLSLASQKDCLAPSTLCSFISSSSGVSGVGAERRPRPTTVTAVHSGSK
Method: as §1

[4] = target: T3, ITK (Homo sapiens, UniProt Q08881); details: for Inhibition at 1 µM (%): ITK, ZLYTE, ATP Km app
T3 sequence (Q08881 1-620): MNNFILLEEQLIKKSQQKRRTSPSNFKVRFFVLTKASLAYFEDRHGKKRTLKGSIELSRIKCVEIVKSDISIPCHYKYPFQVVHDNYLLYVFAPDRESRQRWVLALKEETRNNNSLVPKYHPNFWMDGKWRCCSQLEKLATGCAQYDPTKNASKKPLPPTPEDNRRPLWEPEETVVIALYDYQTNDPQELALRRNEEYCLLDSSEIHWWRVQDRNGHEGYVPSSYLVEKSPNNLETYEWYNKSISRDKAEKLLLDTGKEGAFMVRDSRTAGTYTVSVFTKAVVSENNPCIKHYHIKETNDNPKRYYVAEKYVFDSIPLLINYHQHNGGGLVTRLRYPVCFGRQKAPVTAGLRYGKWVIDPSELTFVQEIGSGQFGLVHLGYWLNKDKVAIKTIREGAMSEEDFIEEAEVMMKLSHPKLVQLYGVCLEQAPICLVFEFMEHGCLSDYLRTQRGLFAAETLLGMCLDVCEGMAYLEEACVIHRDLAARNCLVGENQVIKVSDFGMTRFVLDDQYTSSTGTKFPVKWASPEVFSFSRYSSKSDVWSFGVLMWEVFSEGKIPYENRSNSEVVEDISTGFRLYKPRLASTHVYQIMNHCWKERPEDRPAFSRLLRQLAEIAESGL
Method: as §1

[5] = target: T4, MAPK13 (p38 delta) (Homo sapiens, UniProt O15264)
T4 sequence (O15264 1-365): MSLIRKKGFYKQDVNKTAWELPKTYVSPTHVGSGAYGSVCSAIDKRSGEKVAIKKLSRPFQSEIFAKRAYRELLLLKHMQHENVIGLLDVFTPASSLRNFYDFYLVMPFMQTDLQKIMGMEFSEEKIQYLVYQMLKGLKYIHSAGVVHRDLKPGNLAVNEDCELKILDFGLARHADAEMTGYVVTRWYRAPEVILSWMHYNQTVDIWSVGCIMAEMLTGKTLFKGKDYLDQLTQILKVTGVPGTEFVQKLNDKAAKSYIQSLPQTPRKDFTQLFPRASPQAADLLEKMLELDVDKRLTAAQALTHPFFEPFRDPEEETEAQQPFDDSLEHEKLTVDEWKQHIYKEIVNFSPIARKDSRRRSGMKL
Method: as §1

[6] = target: MAPKAPK2 (Homo sapiens, UniProt P49137)
Sequence of MAPKAPK2 (P49137 whole entry): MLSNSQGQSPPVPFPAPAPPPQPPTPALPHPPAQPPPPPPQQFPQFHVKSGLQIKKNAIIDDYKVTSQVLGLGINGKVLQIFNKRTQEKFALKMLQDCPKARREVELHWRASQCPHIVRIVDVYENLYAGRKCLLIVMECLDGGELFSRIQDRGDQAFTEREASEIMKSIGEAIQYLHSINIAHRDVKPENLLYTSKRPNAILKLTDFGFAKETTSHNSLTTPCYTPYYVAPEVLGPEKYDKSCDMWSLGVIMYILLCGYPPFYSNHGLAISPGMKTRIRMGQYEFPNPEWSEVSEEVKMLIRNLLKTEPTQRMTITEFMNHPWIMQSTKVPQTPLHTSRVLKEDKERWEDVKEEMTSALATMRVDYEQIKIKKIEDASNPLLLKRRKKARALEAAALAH
Method: as §1

[7] = target: YES1 (Homo sapiens, UniProt P07947)
Sequence of YES1 (P07947 whole entry): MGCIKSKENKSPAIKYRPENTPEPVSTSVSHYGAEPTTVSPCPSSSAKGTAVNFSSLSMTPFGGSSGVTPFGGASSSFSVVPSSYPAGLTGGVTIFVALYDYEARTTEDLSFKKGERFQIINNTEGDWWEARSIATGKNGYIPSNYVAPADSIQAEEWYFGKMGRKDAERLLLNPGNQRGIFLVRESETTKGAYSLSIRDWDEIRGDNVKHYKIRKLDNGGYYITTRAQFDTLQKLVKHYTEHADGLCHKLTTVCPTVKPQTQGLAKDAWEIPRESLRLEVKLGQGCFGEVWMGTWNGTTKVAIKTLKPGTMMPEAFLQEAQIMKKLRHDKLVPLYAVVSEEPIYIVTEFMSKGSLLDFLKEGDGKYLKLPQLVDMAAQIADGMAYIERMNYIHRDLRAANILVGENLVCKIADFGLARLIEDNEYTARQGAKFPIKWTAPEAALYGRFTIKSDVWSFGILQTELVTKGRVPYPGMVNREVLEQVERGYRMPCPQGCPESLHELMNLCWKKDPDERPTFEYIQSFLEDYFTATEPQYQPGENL
Method: as §1

[8] = 1 h, 1 μM WEL028, 1 h preincubation

SMILES: C#CCOc1ccc(Nc2ncc(Cl)c(Nc3ccccc3NC(=O)C=C)n2)c(OC)c1 [Compound 6]
- inhibition at 1 µM [1, 8]: 4%
- Inhibition at 1 µM (%) [1]: 2%
- Inhibition at 1 µM (%) ([1]; listed as WEL028, 1 µM): 6%
- inhibition at 1 µM [2, 8]: 2%
- Inhibition at 1 µM (%) ([2]; BRSK1 (SAD1), 1 µM, ZLYTE, ATP Km app, listed as WEL028, 1 µM): 1%
- inhibition at 1 µM ([2]; read-out: Inhibition at 1 µM (%), BRSK1 (SAD1), 1 µM, ZLYTE, ATP Km app): 2%
- inhibition at 1 µM [3, 8]: 6%
- inhibition at 1 µM ([3]; read-out: Inhibition at 1 µM (%), CAMK1D (CaMKI delta), 1 µM, ZLYTE, ATP Km app): 5%
- Inhibition (%) ([4]; 1 μM WEL028, 1 h preincubation): -7%
- Inhibition at 1 µM (%) [4]: -3%
- Inhibition at 1 µM (%) ([4]; listed as WEL028, 1 µM): -10%
- inhibition at 1 µM [5, 8]: 5%
- Inhibition at 1 µM (%) ([5]; MAPK13 (p38 delta), 1 µM, ZLYTE, ATP Km app, listed as WEL028, 1 µM): 6%
- inhibition at 1 µM ([5]; read-out: Inhibition at 1 µM (%), MAPK13 (p38 delta), 1 µM, ZLYTE, ATP Km app): 4%
- inhibition at 1 µM [6, 8]: 7%
- Inhibition at 1 µM (%) ([6]; MAPKAPK2, 1 µM, ZLYTE, ATP Km app, listed as WEL028, 1 µM): 5%
- inhibition at 1 µM ([6]; read-out: Inhibition at 1 µM (%), MAPKAPK2, 1 µM, ZLYTE, ATP Km app): 8%
- Inhibition at 1 µM (%) ([7]; 1 µM, ZLYTE, ATP Km app, listed as WEL028, 1 µM): 10%
- inhibition at 1 µM [7, 8]: 8%
- inhibition at 1 µM ([7]; read-out: Inhibition at 1 µM (%), 1 µM, ZLYTE, ATP Km app): 7%

From PMC7316778 (Nature Communications, 2020)
